Source: ChEMBL document CHEMBL1158928, “Antitumor agents, 118. The isolation and characterization of bruceanic acid A, its methyl ester, and the new bruceanic acids B, C, and D, from Brucea antidysenterica” (1990)
≈ marks a conversion by molar mass, not a printed value. Calls of active or inactive are those of the source. No cut-off for these calls is given here.

What was measured:
P388 [1] = test: Cytotoxicity against mouse P388 cells; format: functional; settings: read-out: ED50 (the source's name)
A549 [2] = test: Cytotoxicity against human A549 cells; format: functional; settings: read-out: ED50 (the source's name)
HCT-8 [3] = test: Cytotoxicity against human HCT8 cells; format: functional; settings: read-out: ED50 (the source's name)
A549 [4] = test: Cytotoxicity against human A549 cells at 10 ug/ml; format: functional, cell-based
HCT-8 [5] = test: Cytotoxicity against human HCT8 cells at 10 ug/ml; format: functional, cell-based
KB [6] = test: Cytotoxicity against human KB cells at 10 ug/ml; format: functional, cell-based
TE-671 [7] = test: Cytotoxicity against human TE671 cells at 10 ug/ml; format: functional, cell-based
P388 [8] = test: Cytotoxicity against mouse P388 cells at 10 ug/ml; format: functional, cell-based
KB [9] = test: Cytotoxicity against human KB cells; format: functional; settings: read-out: ED50 (the source's name)
TE-671 [10] = test: Cytotoxicity against human TE671 cells; format: functional; settings: read-out: ED50 (the source's name)

Structure (SMILES)	EC50 (P388 [1])	EC50 (A549 [2])	EC50 (HCT-8 [3])	Activity (A549 [4])	Activity (HCT-8 [5])	Activity (KB [6])	Activity (TE-671 [7])	Activity (P388 [8])	EC50 (KB [9])	EC50 (TE-671 [10])
COC(=O)[C@@]12OC[C@]34[C@H](CC(=O)[C@H](OC(=O)/C=C(\C)C(C)(C)O)[C@@H]13)C[C@@H](C(C)=O)[C@](C)(CC(=O)O)[C@H]4[C@@H](O)[C@@H]2O [BRUCEANIC ACID D]	0.77 µg/mL (≈ 1.36 µM)	10 µg/mL (≈ 17.6 µM)	10 µg/mL (≈ 17.6 µM)							
COC(=O)[C@@]12OC[C@]34[C@H](CC(=O)[C@H](OC(=O)c5ccccc5)[C@@H]13)C[C@@H](C(C)=O)[C@](C)(CC(=O)O)[C@H]4[C@@H](O)[C@@H]2O				inactive	inactive	inactive	inactive	inactive		
COC(=O)C[C@]1(C)[C@H]2[C@@H](O)[C@H](O)[C@]3(C(=O)OC)OC[C@@]24[C@H](CC(=O)[C@H](OC(=O)/C=C(\C)C(C)C)[C@@H]34)C[C@H]1C(C)=O				inactive	inactive	inactive	inactive	inactive		
COC(=O)[C@@]12OC[C@]34[C@H](CC(=O)[C@H](OC(=O)/C=C(\C)C(C)(C)OC(C)=O)[C@@H]13)C[C@@H](C(C)=O)[C@](C)(CC(=O)O)[C@H]4[C@@H](O)[C@@H]2O				inactive	inactive	inactive	inactive	inactive		
COC(=O)[C@@]12OC[C@]34[C@H](CC(=O)[C@H](OC(=O)/C=C(\C)C(C)C)[C@@H]13)C[C@@H](C(C)=O)[C@](C)(CC(=O)O)[C@H]4[C@@H](O)[C@@H]2O [BRUCEANIC ACID A]		10 µg/mL (≈ 18.2 µM)	10 µg/mL (≈ 18.2 µM)						4.16 µg/mL (≈ 7.56 µM)	5.5 µg/mL (≈ 9.99 µM)
